Experimental data from patent US20140275259A1, “Direct Lipid to Membrane Drug Delivery” (APPLIED BIORESEARCH, INC., priority 2013, published 2014).
Like-named read-outs stand apart in the source and are kept apart here.

Tests used:
[1] = aqueous composition containing MBK, pH 7.0 and pH 9.6, 5 hours
Description: Cells in the digestive track, such as CACO-2 cells are typically used to model absorption in the small intestine. CACO-2 cells, developed by the Sloan-Kettering Institute from human epithelial colorectal adenocarcinoma cells, are widely used to predict drug absorption. […] permeability assay (PAMPA) uses an artificial cell membrane to model drug permeability. In either test, the drug is dissolved in an aqueous solution mimicking the target gastric fluid. The fluid is contacted with the membrane, and the passage of the drug through the membrane over a period of time is used to assess permeability.
PAMPA measures how quickly the drug can exit a water-solvated environment and pass through a cell membrane. Since most drugs are hydrophobic, it is expected that there will be significant absorption by the cells lining the digestive tract.

[2] = rat; for Halflife / Tmax: mean
in vivo = settings: rat
[3] = dogs, rectal, aqueous solution; cited from earlier work
[4] = Group B, intravenous, 1.37 mg/kg

## O=C([O-])CN(CCN(CC(=O)[O-])CC(=O)[O-])CC(=O)[O-].[Ca+2].[Na+].[Na+] [CaNa2EDTA, calcium disodium ethylenediaminetetraacetate]
[1]
  passage of drug through the artificial cell membrane (PAMPA): completely negative
[2]; [4]
  Halflife: 1.50 h
  Tmax: 4.98 min
[2]; Group C, rectal suppository, 213.5 mg/kg
  Tmax: 25 min
[2]; Group C, rectal suppository, 213.5 mg/kg, terminal elimination phase not observed, calculation interpolated
  Halflife: 8.20^1 Hour
[2]; suppository with MBK as the excipient
  drug absorbed within eight hours: over 36.3%
In vivo
  bioavailability at 8 hours: 36.3%
In vivo; 213.5 mg/kg
  AUC: 106 µg·h/mL
  AUC(0-inf): 307 µg·h/mL
  Cmax: 30.6 µg/mL
In vivo; iv, 1.37 mg/kg
  AUC: 1.86 µg·h/mL
  AUC(0-inf): 1.91 µg·h/mL
  Cmax: 2.07 µg/mL

## O=C(O)CN(CCN(CC(=O)O)CC(=O)O)CC(=O)O [EDTA]
[3]
  absorption: ~13%
